The target of experiment [1] is T1, human norepinephrine transporter (Homo sapiens, UniProt P23975).
T1 construct: host or cells: HEK-293
The experiment can be described thus: hNET receptor binding ([125I]-RTI-55 radioligand binding). Particulars: membranes of HEK-293 cells transfected with human norepinephrine transporter, IC50 converted to Ki by Cheng-Prusoff, read-out: hNET (Ki). An outline of the steps: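 Membranes from HEK-293 cells transfected with human NET. Nonspecific binding defined with 10 μM desipramine, duplicates. IC50 by nonlinear regression, converted to Ki with Cheng-Prusoff.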

Experiment [2] addresses T2, human seritonin transporter (Homo sapiens, UniProt P31645).
T2 construct: host or cells: HEK-293
As to the kind of experiment: hSERT receptor binding ([125I]-RTI-55 radioligand binding). To be noted: membranes of HEK-293 cells transfected with human seritonin transporter, IC50 converted to Ki by Cheng-Prusoff, read-out: SERT (Ki).

Bounds are passed on as bounds.

T1 sequence (P23975 whole entry): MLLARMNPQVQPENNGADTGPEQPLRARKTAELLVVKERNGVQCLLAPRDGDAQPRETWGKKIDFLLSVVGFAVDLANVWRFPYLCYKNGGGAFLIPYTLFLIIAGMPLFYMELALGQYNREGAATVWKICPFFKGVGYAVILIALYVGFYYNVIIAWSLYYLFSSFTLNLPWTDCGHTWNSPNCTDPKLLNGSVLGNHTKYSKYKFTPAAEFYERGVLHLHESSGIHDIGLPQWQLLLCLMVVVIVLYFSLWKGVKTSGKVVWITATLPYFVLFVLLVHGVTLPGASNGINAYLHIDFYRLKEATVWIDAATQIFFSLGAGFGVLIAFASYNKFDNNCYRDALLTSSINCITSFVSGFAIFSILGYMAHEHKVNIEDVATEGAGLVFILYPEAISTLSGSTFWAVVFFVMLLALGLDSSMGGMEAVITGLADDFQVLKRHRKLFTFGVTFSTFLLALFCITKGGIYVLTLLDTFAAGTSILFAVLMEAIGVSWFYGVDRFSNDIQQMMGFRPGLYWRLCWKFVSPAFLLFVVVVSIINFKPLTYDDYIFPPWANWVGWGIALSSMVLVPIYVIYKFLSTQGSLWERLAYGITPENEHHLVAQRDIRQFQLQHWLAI
T2 sequence (P31645 whole entry): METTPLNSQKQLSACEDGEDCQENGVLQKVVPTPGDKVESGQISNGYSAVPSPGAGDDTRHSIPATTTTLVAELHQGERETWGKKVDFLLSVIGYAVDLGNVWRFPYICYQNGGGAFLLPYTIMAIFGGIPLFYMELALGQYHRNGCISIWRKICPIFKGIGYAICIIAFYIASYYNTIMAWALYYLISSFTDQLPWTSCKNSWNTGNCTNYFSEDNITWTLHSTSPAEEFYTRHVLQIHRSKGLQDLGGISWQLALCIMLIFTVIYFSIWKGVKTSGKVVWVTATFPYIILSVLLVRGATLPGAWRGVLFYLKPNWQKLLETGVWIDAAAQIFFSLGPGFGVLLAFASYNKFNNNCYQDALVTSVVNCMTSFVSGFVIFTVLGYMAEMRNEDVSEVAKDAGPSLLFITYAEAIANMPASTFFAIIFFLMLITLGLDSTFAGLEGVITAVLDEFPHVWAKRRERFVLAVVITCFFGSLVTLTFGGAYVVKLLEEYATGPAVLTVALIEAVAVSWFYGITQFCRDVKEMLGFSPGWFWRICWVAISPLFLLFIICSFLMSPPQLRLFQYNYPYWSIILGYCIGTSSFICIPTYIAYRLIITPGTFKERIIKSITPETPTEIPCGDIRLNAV

The Ki is a measure of affinity in units of concentration, obtained from inhibition or displacement. Regarding `CCOc1ccccc1O[C@@H](c1ncccc1C)[C@@H]1CNCCO1` [Example 138, (2S)-2-[(S)-(2-ethoxyphenoxy)(3-methylpyridin-2-yl)methyl]morpholine], the Ki in experiment [1] stood at 1610 nM; in experiment [2] it was 3820 nM.
For `Cc1cccnc1[C@H](Oc1ccccc1OC(F)(F)F)[C@@H]1CNCCO1` [Example 139, (2S)-2-{(S)-(3-methylpyridin-2-yl)[2-(trifluoromethoxy)phenoxy]methyl}morpholine], the results for the Ki in experiment [1] and in experiment [2] were 1190 nM and 1140 nM, respectively.
For `COc1cccc([C@H](Oc2ccccc2OC(C)C)[C@@H]2CNCCO2)n1` [Example 140, (2S)-2-[(S)-(2-isopropoxyphenoxy)(6-methoxypyridin-2-yl)methyl]morpholine] the same measures were 71 nM and 763 nM.
`CCc1ccnc([C@H](Oc2c(F)cccc2OC)[C@@H]2CNCCO2)c1` [Example 141, (2S)-2-[(S)-(4-ethylpyridin-2-yl) (2-fluoro-6-methoxyphenoxy)methyl]morpholine]: the Ki in experiment [1] is 40 nM; in experiment [2], 2740 nM.
As for `CCOc1ccccc1O[C@@H](c1cc(CC)ccn1)[C@@H]1CNCCO1` [Example 142, (2S)-2-[(S)-(2-ethoxyphenoxy)(4-ethylpyridin-2-yl)methyl]morpholine], the Ki in experiment [1] came out at 49 nM; in experiment [2], 4540 nM.
Take `CCOc1ncccc1O[C@@H](C)[C@@H]1CNCCO1` [Example 144, (2S)-2-{(1S)-1-[(2-ethoxypyridin-3-yl)oxy]ethyl}morpholine]: the Ki came to 304 nM in experiment [1] and 7220 nM in experiment [2].
The like results for `FCCCc1ccccc1O[C@@H](c1ccccc1)[C@@H]1CNCCO1` [Example 145, (2S)-2-[(S)-[2-(3-fluoropropyl)phenoxy](phenyl)methyl]morpholine] were, in that order, 45 nM and 4140 nM.
Consider `Fc1cccc(F)c1O[C@H](C1=CCCC1)[C@@H]1CNCCO1` [Example 147, (2S)-2-[(R)-cyclopent-1-en-1-yl(2,6-difluorophenoxy)methyl]morpholine], for which the Ki in experiment [1] is 2570 nM; in experiment [2] it was 2530 nM.
On to `COc1cccc(OC)c1OC(c1ccccc1)[C@@H]1CNCCO1` (stereo partly drawn) [Example 148, (2S)-2-[(2,6-dimethoxyphenoxy)(phenyl)methyl]morpholine], for which the Ki was 69 nM in experiment [1] and ≥ 10000 nM in experiment [2].
The like results for `CCOc1ncccc1OC(CC(C)C)[C@@H]1CNCCO1` (stereo partly drawn) [Example 149, (2S)-2-{1-[(2-ethoxypyridin-3-yl)oxy]-3-methylbutyl}morpholine] were, in that order, 9 nM and 2310 nM.
Take `c1ccc([C@H](Oc2cccnc2C2CC2)[C@@H]2CNCCO2)cc1` [Example 150, (2S)-2-[(S)-[(2-cyclopropylpyridin-3-yl)oxy](phenyl)methyl]morpholine]: the Ki in experiment [1] is 20 nM; in experiment [2] it was 2030 nM.
Regarding `CC(Oc1ccccc1Oc1ccc(F)cc1)[C@@H]1CNCCO1` (stereo partly drawn) [Example 151, (2S)-2-{1-[2-(4-fluorophenoxy)phenoxy]ethyl}morpholine], the results for the Ki in experiment [1] and in experiment [2] were 4 nM and 3290 nM, respectively.
`Fc1ccc(Cl)c(O[C@@H](c2ccccn2)[C@@H]2CNCCO2)c1` [Example 152, (2S)-2-[(S)-(2-chloro-5-fluorophenoxy)(pyridin-2-yl)methyl]morpholine]: the results for the Ki in experiment [1] and in experiment [2] were 9 nM and 1940 nM, respectively.
For `c1ccc(-c2ccccc2O[C@@H](c2ccccn2)[C@@H]2CNCCO2)cc1` [Example 153, (2S)-2-[(S)-(biphenyl-2-yloxy)(pyridin-2-yl)methyl]morpholine], the Ki in experiment [1] came to 14 nM; in experiment [2] it was 6320 nM.
In the case of `c1ccc([C@H](Oc2ccccc2C2CC2)[C@@H]2CNCCO2)nc1` [Example 154, (2S)-2-[(S)-(2-cyclopropylphenoxy)(pyridin-2-yl)methyl]morpholine], the inhibition constant (Ki) was found to be 12 nM in experiment [1] and 2520 nM in experiment [2].
